Values joined by “and” are separate entries in the source; they are usually repeats but may differ in a detail not shown here. Identical values can stand only once.

Assay [1] concerns human bladder cancer cell lines (HBCCs). The class given is cell-based. Particulars: p>0.8, data not shown.
Assay [2] deals with RT4 cells. In words: SRB cell viability assay in RT4 cells. The class given is cell-based, human. Particulars: for RT4 cell viability inhibition: 20 μM, 48 hr.
The test system of assay [3] is J82 cells. In words: SRB cell viability assay in J82 cells. The class given is cell-based. Particulars: Homo sapiens, J82, 48 h, read-out: IC50, cell viability.
The test system of the next assay is UMUC3 cells. Nature of the assay: cells. The class given is cell-based. Particulars: Homo sapiens, UMUC3, 48 h, read-out: IC50, cell viability.
Assay [4] concerns Normal human bladder urothelial cells (NHU). In words: tissue or blood. The class given is cell-based.
Assay [5] concerns RT4 cells. Nature of the assay: Cell cycle analysis by flow cytometry, RT4. The class given is cell-based, human. The conditions noted are these: 20 μM, 48 hr. On the technique in general: In flow cytometry, cells or beads pass a laser one at a time.
Assay [6] relates to J82 cells. Nature of the assay: Cell cycle analysis by flow cytometry, J82. Particulars: 20 μM, 48 hr. The assay is classed as cell-based, human.
The subject of the next assay is caspase 3/7. Nature of the assay: Apo-ONE caspase-3/7 assay, RT4. The class given is cell-based, human. The conditions noted are these: 10 μM, 48 hr.
Assay [7] deals with PARP. In words: Western blot of PARP cleavage, RT4. Particulars: 20 μM, 48 hr. The assay is classed as cell-based, human.
Assay [8] deals with PARP. Nature of the assay: Western blot of PARP cleavage, UMUC3. The assay is classed as cell-based, human. Particulars: 20 μM, 48 hr. Background: In western blotting, separated proteins are transferred to a membrane and probed.
Assay [9] relates to survivin. In words: Western blot of survivin expression, UMUC3. The assay is classed as cell-based, human. The conditions noted are these: 20 μM, 48 hr.
In assay [10] the test system is EGFR. Nature of the assay: Western blot of EGFR expression, RT4. The conditions noted are these: 20 μM, 48 hr. The class given is cell-based, human.
Assay [11] relates to EGFR. In words: Western blot of EGFR expression, UMUC3. The class given is cell-based, human. Particulars: 20 μM, 48 hr.
Assay [12] deals with HER2/neu. In words: Western blot of HER2/neu expression, RT4. The assay is classed as cell-based, human. Particulars: 20 μM, 48 hr.
In assay [13] the test system is HER2/neu. In words: Western blot of HER2/neu expression, UMUC3. The assay is classed as cell-based, human. The conditions noted are these: 20 μM, 48 hr.
The test system of a further assay is UMUC3 xenograft. In words: UMUC3 xenograft in athymic nude mice. The class given is in vivo, mouse. Particulars: 295 μmol/kg/day oral gavage, 2 weeks.
Assay [14] concerns survivin. The conditions noted are these: RT4; 20 μM, 48 hr.

Take `C[S+]([O-])CCCCN=C=S` (centres unmarked) [R-sulforaphane]: the “difference between isomers in inhibitory effects of HBCCs” value in assay [1] is on record as “no difference”.
As to `C[S@+]([O-])CCCCN=C=S` [S-sulforaphane], the “difference between isomers in inhibitory effects of HBCCs” value in assay [1] is “no difference”.
With `C=CCN=C=S` [allyl isothiocyanate], the “RT4 cell viability inhibition” value with RT4 cells [2] is on record as 28%.
For the molecule `C[S+]([O-])CCCN=C=S` (centres unmarked) [iberin], in the assay with RT4 cells [2], the “RT4 cell viability inhibition” value is on record as 12%.
`C[S+]([O-])CCCCN=C=S` (centres unmarked) [sulforaphane]: the “RT4 cell viability inhibition” value in the assay with RT4 cells [2] was 64%. The IC50 with RT4 cells [2] (Homo sapiens, RT-4, 48 h, read-out: IC50, cell viability) was found to be 11.2 ± 0.3 µM; with J82 cells [3], 7.7 ± 1.8 µM; in the assay on UMUC3 cells it was 5.66 ± 1.2 µM. In [4] (Homo sapiens, 72 h, read-out: inhibition of NHU), the inhibition at 20 µM came to 62%. Moreover, in assay [4] (NHU cells, 72 hr), the “IC50, cell viability” value is “not reached”. For the same molecule, the “increase of cells in the G2/M phase compared to control” value in the assay with RT4 cells [5] came out at 2.6 fold. The “increase of cells in the G2/M phase” value in the assay with J82 cells [6] was 3 fold. Moreover, in the assay on caspase 3/7, the “increase in caspase 3/7 activity compared to control” value amounted to 2.5 fold. Further, the PARP cleavage increase is given as 2.3 fold in the assay with PARP [7] and 3.6 fold in the assay with PARP [8]. In the assay on survivin [9], this molecule gave a survivin expression downregulated of 35%. For the same molecule, the “changes in EGFR expression” value in the assay on EGFR [10] is given as “does not lead to significant changes”. Also, the “EGFR protein expression downregulated” value in the assay with EGFR [11] is recorded as 54%. The “decrease of HER2/neu expression” value with HER2/neu [12] was found to be 10%. In the assay with HER2/neu [13], the HER2/neu downregulated is given as 90%. Moreover, the “inhibition of tumor growth rate” value with UMUC3 xenograft was 42%. The “decrease in final tumor weight” value with UMUC3 xenograft (versus vehicle control soy bean oil) is recorded as 33%. Moreover, the “decrease in survivin expression” value with survivin [14] was 51% and 44%.

For orientation: IC50 means the midpoint of a concentration-inhibition curve. As a reminder, the inhibition is the drop in the measured response relative to a control, in per cent.
